Experiment [1] has as its target T1, ADP-ribosylation factor GTPase-activating protein 1 (Homo sapiens, UniProt Q8N6T3). As to the kind of experiment: Inhibition of ARFGAP1 (unknown origin) at 10 uM relative to control.
In experiment [2] the target is T1, ADP-ribosylation factor GTPase-activating protein 1. As to the kind of experiment: Inhibition of ARFGAP1 (unknown origin).
For the next experiment, the system named is MDA-MB-231. The experiment in a line: Inhibition of cell migration in human MDA-MB-231 cells at 2.5 uM measured after 12 hrs by transwell migration assay. The format is functional.

pEC50: −log10 of the molar value.

T1 sequence (Q8N6T3 whole entry): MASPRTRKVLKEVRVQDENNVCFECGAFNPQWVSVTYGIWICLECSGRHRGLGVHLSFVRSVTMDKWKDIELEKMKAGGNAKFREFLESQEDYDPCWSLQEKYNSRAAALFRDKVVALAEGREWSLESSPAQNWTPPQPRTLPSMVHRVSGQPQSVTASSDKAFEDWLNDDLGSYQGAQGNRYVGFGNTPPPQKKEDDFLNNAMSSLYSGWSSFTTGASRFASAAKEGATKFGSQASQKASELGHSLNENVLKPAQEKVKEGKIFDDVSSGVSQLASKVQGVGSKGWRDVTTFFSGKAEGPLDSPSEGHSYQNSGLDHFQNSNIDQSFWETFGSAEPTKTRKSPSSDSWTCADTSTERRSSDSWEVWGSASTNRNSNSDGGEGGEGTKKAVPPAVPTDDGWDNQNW

In general, inhibition refers to the percentage by which the read-out fell short of the control. The pEC50 is −log10 of the EC50, conventionally taken in molar units. Read a high pEC50 as a small EC50. Regarding `OC[C@H](Cc1ccccc1)Nc1nc(Oc2ccc3c(c2)CCC3)nc2c1ncn2Cc1ccc(-c2ccccc2)cc1`, in experiment [1], the inhibition was determined as 84%. The negative logarithm of the EC50 (pEC50) in experiment [2] was 6.30. Also, in the experiment with MDA-MB-231, the inhibition at 2.5 µM was found to be 80%.

`FC(F)(F)c1cccc(Oc2nc(NCCc3cccc4ccccc34)c3ncn(Cc4ccc(-c5ccccc5)cc4)c3n2)c1` showed an inhibition in experiment [1] of 67%.

Values taken from ChEMBL document CHEMBL5325410, “Ras superfamily GTPase activating proteins in cancer: Potential therapeutic targets?” (Eur J Med Chem, 2023).
